Results on 1 molecule are retold here after patent US20080312171A1, “Tetracycline-Dependent Regulation of Rna Interference” (CENTRE NATIONAL DE LA RECHERCHE SCIENTIFIQUE, priority 2005, published 2008).

What all share (format): cell-based
The subject of assay [1] is GFP expression in HEK 293T GFP cells. Nature of the assay: FACS analysis of GFP-positive cells, vector-transduced HEK 293T GFP cells with and without Dox. The settings on record: various amounts of vector, Dox 6 μg/ml, 5 days. In general terms: A flow cytometer gives signals particle by particle.
Assay [2] has as its system GFP expression in HEK 293T GFP cell clones. In words: GFP fluorescence (FACS, microscopy) in cell clones from transduced HEK 293T GFP cells, Dox-controlled RNAi.
Assay [3] relates to human p53. Nature of the assay: Western blot analysis of p53 silencing by Dox-regulated RNAi in HEK 293T, MCF-7 and A549 cells. The settings on record: transduced HEK 293T, Dox 6 μg/ml, 5-7 days, densitometric analysis. On the procedure:
Cells (1×10^5) were incubated overnight with indicated quantities of vector, expressed as ng of protein p24, and then cultivated in the absence and in the presence of 6 μg/ml Dox. After a 5 day (MCF-7 and A549 cells) and a 7 day cultivation (HEK 293T cells), protein was extracted from the cells and analyzed by immunoblotting.
Inventors constructed a second vector, which contained a shRNA encoding sequence designed to silence expression of human p53 as described (1). […] The expression of p53 was not reduced when non-transduced cells were incubated in the presence of Dox (6 μg/ml).
Cell extracts were prepared in lysis buffer [25 mM Tris-HCl (pH 7.5), 1% Triton X-100, 0.5% sodium deoxycholate, 5 mM EDTA, 150 mM NaCl] containing a cocktail of protease inhibitors (Roche, Meylan, France). The protein samples (30 μg) were separated on SDS-9% polyacrylamide gels and then transferred to Protan nitrocellulose membranes (Schleicher and Shuell, Dassel, Germany) in an electroblotting apparatus, using standard procedures (26). Immunodetection was performed as described in Tejedor-Real et al. (27), using a monoclonal anti-p53 antibody (BD Biosciences, Erembodegem, Belgium), a monoclonal anti-actin antibody (Chemicon, Hampshire, UK) and an anti-mouse Ig-horseradish peroxidase (HRP) conjugate (Amersham Biosciences).

With `C[C@H]1c2cccc(O)c2C(=O)C2=C(O)[C@]3(O)C(=O)C(C(N)=O)=C(O)[C@@H](N(C)C)[C@@H]3[C@@H](O)[C@@H]21` [Dox, Doxycycline], the “reduction of the number of GFP-expressing cells” value in assay [1] is listed as “up to 60%”. Moreover, the “MFI (+Dox)” value amounted to 4 in assay [2] (clone C1), 32 in assay [2] (clone C9), 9 in assay [2] (clone D8) and 77 in assay [2] (clone H6). For the same molecule, the Regulation factor in assay [2] (clone C1, MFI (−Dox) over MFI (+Dox)) was found to be 52; in assay [2] (clone C9, MFI (−Dox) over MFI (+Dox)) it was 9.7; in assay [2] (clone D8, MFI (−Dox) over MFI (+Dox)), 24; in assay [2] (clone H6, MFI (−Dox) over MFI (+Dox)), 4.4. Besides, the “reduction of GFP fluorescence” value in assay [2] (clone C9, 6 μg/ml Dox, after 5-6 days, FACS) is recorded as 90%. Also, in assay [2] (clone C9, within 5 days), the “concentration required to induce a 90% suppression of GFP” value is “about 6 μg/ml”. Besides, the “inhibition of the expression of p53” value in assay [3] was “up to 90%”.
